Test results reported in ChEMBL document CHEMBL1201862, “PubChem BioAssay data set” (2004).
The source made the active and inactive calls.

Experiments:
[1] = Luminescence Cell-Based Dose Confirmation HTS to Identify Activators of 5'UTR Stem-Loop Driven Alpha-Synuclein mRNA Translation in H4 Neuroglioblastoma Cells. [Related pubchem assays: 1829 (Project Summary), 1814 (Primary HTS)]; assay type: functional
[2] = Luminescence Cell-Based Dose Response HTS to Identify Activators of Luciferase Translation or Activity in H4 […] Cells. [Related pubchem assays: 1829 (Project Summary), 1814 (Primary HTS)]; assay type: functional
[3] = test system: H4; experiment: Luminescence Cell-Based Dose Response HTS to Identify Activators of 5'UTR Stem-Loop Driven Prion Protein mRNA Translation in H4 Neuroglioblastoma Cells. [Related pubchem assays: 1829 (Project Summary), 1814 (Primary HTS)]; assay type: functional; details: Homo sapiens
[4] = biological target: T1, Cytochrome P450 1A2 (Homo sapiens, UniProt P05177);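 note: PubChem cytochrome P450 panel assay, CYP1A2 panel member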
T1 sequence (P05177 whole entry): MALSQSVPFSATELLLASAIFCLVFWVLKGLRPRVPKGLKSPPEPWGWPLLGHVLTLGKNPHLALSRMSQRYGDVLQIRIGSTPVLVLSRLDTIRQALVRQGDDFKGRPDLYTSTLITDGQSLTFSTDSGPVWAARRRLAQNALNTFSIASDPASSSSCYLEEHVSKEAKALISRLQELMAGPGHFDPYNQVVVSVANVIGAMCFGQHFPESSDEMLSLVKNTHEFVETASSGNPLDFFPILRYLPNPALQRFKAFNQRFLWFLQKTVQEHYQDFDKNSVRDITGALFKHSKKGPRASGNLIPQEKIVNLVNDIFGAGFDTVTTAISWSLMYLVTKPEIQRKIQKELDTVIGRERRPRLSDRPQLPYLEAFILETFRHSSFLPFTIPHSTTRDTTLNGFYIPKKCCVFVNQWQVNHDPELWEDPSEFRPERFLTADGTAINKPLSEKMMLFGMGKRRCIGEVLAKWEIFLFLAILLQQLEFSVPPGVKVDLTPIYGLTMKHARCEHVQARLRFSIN

[5] = biological target: Cytochrome P450 3A4 (Homo sapiens, UniProt P08684);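 note: CYP3A4 tested as one member of a cytochrome P450 panel screen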
Cytochrome P450 3A4, sequence (P08684 whole entry): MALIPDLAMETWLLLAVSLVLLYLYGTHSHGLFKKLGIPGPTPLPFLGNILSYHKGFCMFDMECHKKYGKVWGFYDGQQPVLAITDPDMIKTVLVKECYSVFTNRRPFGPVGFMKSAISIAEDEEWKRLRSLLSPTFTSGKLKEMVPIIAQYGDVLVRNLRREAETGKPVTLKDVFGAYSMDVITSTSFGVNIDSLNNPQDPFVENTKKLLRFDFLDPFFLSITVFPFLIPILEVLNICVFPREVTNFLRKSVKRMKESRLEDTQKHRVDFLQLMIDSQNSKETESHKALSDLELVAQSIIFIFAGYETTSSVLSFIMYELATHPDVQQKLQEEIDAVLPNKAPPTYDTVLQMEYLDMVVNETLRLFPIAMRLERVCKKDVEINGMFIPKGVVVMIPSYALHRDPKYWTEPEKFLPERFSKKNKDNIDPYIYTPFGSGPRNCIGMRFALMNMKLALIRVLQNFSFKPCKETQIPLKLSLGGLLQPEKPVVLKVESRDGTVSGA

[6] = biological target: T2, Replicative DNA helicase DnaB (Mycobacterium tuberculosis, UniProt P9WMR3); experiment: DnaB intein splicing inhibitors, dose response, biochemical, cell-free fluorescence (AID 449749); assay type: functional
T2 sequence (P9WMR3 whole entry): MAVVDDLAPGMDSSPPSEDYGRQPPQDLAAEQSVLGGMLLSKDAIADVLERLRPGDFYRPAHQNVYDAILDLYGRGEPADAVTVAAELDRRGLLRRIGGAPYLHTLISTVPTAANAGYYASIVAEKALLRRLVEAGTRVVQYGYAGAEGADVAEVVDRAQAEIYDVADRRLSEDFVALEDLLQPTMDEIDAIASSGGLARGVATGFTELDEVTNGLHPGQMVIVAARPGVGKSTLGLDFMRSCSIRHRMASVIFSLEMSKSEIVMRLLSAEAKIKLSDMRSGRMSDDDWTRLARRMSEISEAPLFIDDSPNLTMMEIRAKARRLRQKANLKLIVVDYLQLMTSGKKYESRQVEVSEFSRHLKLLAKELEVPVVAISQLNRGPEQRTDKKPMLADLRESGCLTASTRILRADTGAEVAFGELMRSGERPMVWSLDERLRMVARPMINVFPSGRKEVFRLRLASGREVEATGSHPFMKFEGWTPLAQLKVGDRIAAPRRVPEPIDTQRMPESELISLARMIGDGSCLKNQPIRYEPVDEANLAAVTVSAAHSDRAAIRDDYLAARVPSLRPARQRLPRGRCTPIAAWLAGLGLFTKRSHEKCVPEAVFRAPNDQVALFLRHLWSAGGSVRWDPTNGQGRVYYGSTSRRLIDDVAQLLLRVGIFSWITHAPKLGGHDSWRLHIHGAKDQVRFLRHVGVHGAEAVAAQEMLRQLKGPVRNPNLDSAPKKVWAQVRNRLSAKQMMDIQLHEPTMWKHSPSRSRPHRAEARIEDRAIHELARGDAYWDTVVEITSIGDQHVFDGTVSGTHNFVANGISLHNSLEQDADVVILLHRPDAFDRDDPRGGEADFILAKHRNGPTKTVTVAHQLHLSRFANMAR

[7] = biological target: T3, Protein RecA (Mycobacterium tuberculosis, UniProt P9WHJ3); experiment: Fluorescence Cell-Free Homogeneous Dose Retest to Identify Inhibitors of RecA-Intein Splicing Activity. [Related pubchem assays (depositor defined):AID2097, AID2223, AID489010, AID492950]; assay type: functional
T3 sequence (P9WHJ3 whole entry): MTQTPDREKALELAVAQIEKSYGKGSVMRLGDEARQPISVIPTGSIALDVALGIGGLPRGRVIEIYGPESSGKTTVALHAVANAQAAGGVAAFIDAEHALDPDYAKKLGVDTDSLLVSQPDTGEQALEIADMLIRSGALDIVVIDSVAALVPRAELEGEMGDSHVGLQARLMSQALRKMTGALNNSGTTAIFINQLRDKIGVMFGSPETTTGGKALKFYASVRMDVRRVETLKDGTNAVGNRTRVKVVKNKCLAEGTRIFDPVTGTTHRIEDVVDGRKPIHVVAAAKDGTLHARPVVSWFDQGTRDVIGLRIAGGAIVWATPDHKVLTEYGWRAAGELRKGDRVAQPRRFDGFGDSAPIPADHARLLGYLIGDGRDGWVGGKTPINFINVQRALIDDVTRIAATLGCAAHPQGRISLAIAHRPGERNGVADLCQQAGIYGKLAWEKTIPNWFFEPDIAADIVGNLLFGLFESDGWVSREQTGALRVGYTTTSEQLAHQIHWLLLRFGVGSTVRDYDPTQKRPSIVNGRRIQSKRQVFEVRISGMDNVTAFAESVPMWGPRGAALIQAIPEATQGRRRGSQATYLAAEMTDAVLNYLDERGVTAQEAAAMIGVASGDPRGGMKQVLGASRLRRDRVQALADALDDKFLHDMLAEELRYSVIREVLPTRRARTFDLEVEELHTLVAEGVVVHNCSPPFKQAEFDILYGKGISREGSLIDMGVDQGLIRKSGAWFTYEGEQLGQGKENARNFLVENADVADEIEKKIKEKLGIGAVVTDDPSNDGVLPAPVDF

[8] = biological target: Cytochrome P450 2D6 (Homo sapiens, UniProt P10635);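 note: CYP2D6 member of a cytochrome P450 panel assay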
Cytochrome P450 2D6, sequence (P10635 whole entry): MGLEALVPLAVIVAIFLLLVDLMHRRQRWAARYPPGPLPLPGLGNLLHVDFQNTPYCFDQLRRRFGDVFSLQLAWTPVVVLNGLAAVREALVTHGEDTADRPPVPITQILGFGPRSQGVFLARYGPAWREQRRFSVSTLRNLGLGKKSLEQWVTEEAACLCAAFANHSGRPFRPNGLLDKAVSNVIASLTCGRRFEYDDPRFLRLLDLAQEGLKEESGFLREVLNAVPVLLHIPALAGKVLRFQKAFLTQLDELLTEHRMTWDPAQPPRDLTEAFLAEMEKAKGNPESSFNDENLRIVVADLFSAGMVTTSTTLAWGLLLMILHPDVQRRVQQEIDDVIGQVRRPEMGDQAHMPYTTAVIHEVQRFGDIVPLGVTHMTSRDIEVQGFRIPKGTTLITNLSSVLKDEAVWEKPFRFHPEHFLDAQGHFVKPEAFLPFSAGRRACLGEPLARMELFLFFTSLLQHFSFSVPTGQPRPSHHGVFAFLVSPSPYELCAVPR

[9] = biological target: Cytochrome P450 2C9 (Homo sapiens, UniProt P11712)
Cytochrome P450 2C9, sequence (P11712 whole entry): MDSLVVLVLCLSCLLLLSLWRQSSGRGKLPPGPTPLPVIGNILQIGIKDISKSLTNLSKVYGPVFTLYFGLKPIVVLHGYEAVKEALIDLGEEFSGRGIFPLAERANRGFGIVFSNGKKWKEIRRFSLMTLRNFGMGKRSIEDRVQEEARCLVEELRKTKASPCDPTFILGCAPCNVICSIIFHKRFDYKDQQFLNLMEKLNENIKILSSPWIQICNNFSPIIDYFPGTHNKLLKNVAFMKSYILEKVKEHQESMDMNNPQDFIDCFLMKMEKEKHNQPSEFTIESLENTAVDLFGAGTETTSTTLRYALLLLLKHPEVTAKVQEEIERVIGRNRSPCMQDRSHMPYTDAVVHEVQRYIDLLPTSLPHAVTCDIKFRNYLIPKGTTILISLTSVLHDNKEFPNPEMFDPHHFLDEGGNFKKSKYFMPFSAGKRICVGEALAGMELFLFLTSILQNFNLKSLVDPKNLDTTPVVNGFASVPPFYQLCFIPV

[10] = Luminescence Cell-Based Dose Retest to Confirm Inhibitors of Cancer Stem Cells. [Related pubchem assays (depositor defined):AID2717, AID2721]; assay type: functional; details: Homo sapiens
[11] = biological target: Cytochrome P450 2C19 (Homo sapiens, UniProt P33261); experiment: Cytochrome panel assay with activity outcomes. Panel member name: p450-cyp2c19 Compounds with AC50 equal or less than 10 uM are considered active; assay type: functional; details: read-out: AC50
Cytochrome P450 2C19, sequence (P33261 whole entry): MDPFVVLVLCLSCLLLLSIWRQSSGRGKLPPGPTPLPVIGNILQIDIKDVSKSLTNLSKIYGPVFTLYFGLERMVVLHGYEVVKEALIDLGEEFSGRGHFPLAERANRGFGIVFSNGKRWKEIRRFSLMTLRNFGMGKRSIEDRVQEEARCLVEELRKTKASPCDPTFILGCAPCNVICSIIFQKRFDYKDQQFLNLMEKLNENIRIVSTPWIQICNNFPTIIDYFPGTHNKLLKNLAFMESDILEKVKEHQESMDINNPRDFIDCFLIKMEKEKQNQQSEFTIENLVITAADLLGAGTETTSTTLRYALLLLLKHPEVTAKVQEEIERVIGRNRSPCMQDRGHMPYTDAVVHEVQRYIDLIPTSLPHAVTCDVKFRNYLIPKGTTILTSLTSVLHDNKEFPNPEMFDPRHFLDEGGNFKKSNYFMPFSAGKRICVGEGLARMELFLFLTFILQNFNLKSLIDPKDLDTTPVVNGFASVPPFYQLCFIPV

[12] = test system: INS1; experiment: beta cell apoptosis inhibitors, cytokine rescue, dose response, luminescence, retest (AID 449756); assay type: functional, cell-based; details: Rattus norvegicus;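 note: cell death triggered by IL-1 beta plus TNF-alpha plus IFN-gamma mixture; protective hits raise ATP signal compared with cytokine alone wells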

SMILES: COc1ccc(OC)c(/C=N/c2ccccc2-c2nc3ccccc3[nH]2)c1
- EC50 [1]: 13.1 µM (active)
- EC50 [2]: 8.07 µM (active)
- EC50 [3]: 10.8 µM (active)

SMILES: COc1ccc(NC(=O)N2CC[C@@]3(CCCN(S(C)(=O)=O)C3)C2)cc1
- AC50 [4]: 25.1 µM (inconclusive)
- AC50 [5]: 39.8 µM (inconclusive)

SMILES: CC1=NNC(=O)C1Cc1ccc(F)cc1 (stereo not given)
- AC50 [6]: 14 µM (active)
- EC50 [7]: 14.2 µM (active)

SMILES: Cc1cc(C)n(C(=O)c2cc3sccc3[nH]2)n1
- EC50 [1]: 6.99 µM (active)
- EC50 [2]: 14.6 µM (active)
- EC50 [3]: 83.6 µM (inconclusive)

SMILES: COc1ccccc1-c1nc(N2CCOCC2)c2ccccc2n1
- AC50 [8]: 12.6 µM (inconclusive)
- AC50 [5]: 15.8 µM (inconclusive)

SMILES: O=c1c2c3nc4ccccc4nc3n(/N=C/c3ccccn3)c2ncn1-c1ccccc1
- EC50 [1]: > 120 µM (not active)
- EC50 [2]: 13 µM (active)
- EC50 [3]: > 120 µM (not active)

SMILES: COc1ccc(C(c2c(C)n[nH]c2O)c2c(C)n[nH]c2O)cc1Br
- AC50 [6]: 0.32 µM (active)
- EC50 [7]: 0.289 µM (active)

SMILES: O=C(Nc1ccccc1N(C(=O)c1ccco1)S(=O)(=O)c1cccs1)c1ccco1
- AC50 [6]: 5.6 µM (active)
- EC50 [7]: 8.58 µM (active)

SMILES: Cc1ccccc1NC(=O)C1Cc2ccccc2CN1C(=O)c1ccco1 (stereo not given)
- EC50 [1]: 35.6 µM (active)
- EC50 [2]: 39.3 µM (active)
- EC50 [3]: 12.7 µM (active)

SMILES: Cc1ccc(-c2nnc(-c3ccc4ccccc4c3)o2)cc1
- AC50 [5]: 6.31 µM (inconclusive)
- AC50 [9]: 5.01 µM (inconclusive)

SMILES: CCc1cc2c(nc1CC)CCN(CC/C(C)=N/OC[C@H]1O[C@H](c3ccccc3)C=C[C@@H]1Oc1ccc(OC)cc1)C2
- AC50 [8]: 6.31 µM (inconclusive)
- AC50 [5]: 6.31 µM (inconclusive)
- AC50 [9]: 6.31 µM (inconclusive)

SMILES: CC#CCOC(=O)c1c(C)nc2sc3c(c2c1N)CCC(O)C3 (stereo not given)
- AC50 [10]: 4.7 µM (active)

SMILES: Cc1ccc2nsnc2c1NS(=O)(=O)c1c(C)ccc2nsnc12
- AC50 [6]: 37.8 µM (active)
- EC50 [7]: 24.8 µM (active)

SMILES: COc1ccc(C(CC(=O)Nc2ccccn2)N2Cc3ccccc3C2=O)cc1 (stereo not given)
- EC50 [1]: > 60 µM (not active)
- EC50 [2]: 16.4 µM (active)
- EC50 [3]: > 120 µM (not active)

SMILES: C[C@](O)(C(=O)Nc1ccc(S(=O)(=O)c2ccccc2)cc1)C(F)(F)F
- AC50 [11]: 6.31 µM (inconclusive)
- AC50 [8]: 31.6 µM (inconclusive)
- AC50 [4]: 39.8 µM (inconclusive)
- AC50 [5]: 31.6 µM (inconclusive)

SMILES: CCOC(=O)C(=NCCCN1CCOCC1)NNc1cccc(C(F)(F)F)c1
- AC50 [10]: 8.17 µM (active)

SMILES: O=C(c1ccc(Cl)cc1)c1c[nH]c(C(=O)C(Cl)(Cl)Cl)c1
- EC50 [7]: > 380 µM (inconclusive)

SMILES: Cn1nc(/C=C/c2ccccc2)ccc1=O
- EC50 [1]: 10.9 µM (active)
- EC50 [2]: 15.2 µM (active)
- EC50 [3]: 14.1 µM (active)

SMILES: Cc1ccc(C(=O)NC(=S)NCC(=O)c2ccccc2)cc1
- AC50 [4]: 2.24 µM (inconclusive)
- AC50 [5]: 8.91 µM (inconclusive)
- AC50 [9]: 2.51 µM (inconclusive)

SMILES: Cc1ccccc1C(=O)N1CCN(c2ccc(NC(=O)c3cccnc3)cc2)CC1
- AC50 [12]: 7.89 µM (active)

SMILES: CCOC(=O)C1=C(O)/C(=C\c2ccc(OC)c(OC)c2)N=C1C
- AC50 [11]: 39.8 µM (inconclusive)
- AC50 [4]: 8.91 µM (inconclusive)
- AC50 [5]: 15.8 µM (inconclusive)

SMILES: CCOC(=O)c1cnn(-c2ccc(C(F)(F)F)cn2)c1N
- EC50 [1]: 21.1 µM (active)
- EC50 [2]: > 120 µM (not active)
- EC50 [3]: > 120 µM (not active)

SMILES: O=C(C1CCCN(S(=O)(=O)c2ccc([N+](=O)[O-])cc2)C1)N1CCCCC1 (stereo not given)
- AC50 [10]: > 195 µM (inactive)

SMILES: COc1ccccc1NC(=O)Nc1ccc(-n2ccc(C(F)(F)F)n2)cc1
- AC50 [10]: 4.01 µM (active)

SMILES: Clc1ccc(-c2cnc(Oc3ccccc3)nc2)cc1
- EC50 [1]: 2.63 µM (active)
- EC50 [2]: 0.194 µM (active)

SMILES: CCOc1cc(/C=C2\C(=O)N(c3ccc(C(N)=O)cc3)N=C2C)ccc1OC(=O)c1cccs1
- AC50 [6]: 2.35 µM (active)
- EC50 [7]: 1.93 µM (active)

SMILES: Cc1csc2c(N3CCN(C(=O)c4ccc(C(C)(C)C)cc4)CC3)ncnc12
- AC50 [12]: 13.2 µM (active)

SMILES: COc1ccc(CCc2nc(-c3cccs3)no2)cc1
- EC50 [1]: 19.2 µM (active)
- EC50 [2]: 6.22 µM (active)
- EC50 [3]: 23.3 µM (active)

SMILES: Cc1n[nH]c(O)c1C(c1ccc([N+](=O)[O-])cc1)c1c(C)n[nH]c1O
- AC50 [6]: 0.704 µM (active)
- EC50 [7]: 0.27 µM (active)

SMILES: Cc1ccc(NC(=O)CC2SCCNC2=O)cc1Cl (stereo not given)
- EC50 [1]: 14.5 µM (active)
- EC50 [2]: 30.9 µM (active)
- EC50 [3]: > 120 µM (not active)

SMILES: Fc1ccc(NC(S)=Nc2cc(-c3ccccc3)[nH]n2)cc1Cl
- AC50 [10]: 3.05 µM (active)

SMILES: COc1ccc(-c2ccc(C)cc2)cc1[C@H]1[C@@H]2C=CCC[C@@]2(C)C(=O)N1Cc1ccccc1
- AC50 [10]: 3.36 µM (active)

SMILES: O=C(Nc1cccn2ncnc12)c1ccccc1
- EC50 [1]: > 120 µM (not active)
- EC50 [2]: 14.8 µM (active)
- EC50 [3]: 23.5 µM (active)

SMILES: Cc1cc(C(=O)CSc2cccc[n+]2[O-])c(C)n1-c1ccc(Br)cc1
- EC50 [1]: < 0.1 µM (active)
- EC50 [2]: 55.6 µM (active)
- EC50 [3]: > 120 µM (not active)
